In ChEMBL document CHEMBL1135773, “Purine and pyrimidine (P2) receptors as drug targets” (J Med Chem, 2002):

Legend:
P2Y purinoceptor 11 [1] = molecular target: T1, P2Y purinoceptor 11 (Homo sapiens, UniProt Q96G91); assay: Agonist activity against phospholipase C coupled human P2Y purinoceptor 11 (P2Y11); assay type: functional
T1 sequence (Q96G91 whole entry): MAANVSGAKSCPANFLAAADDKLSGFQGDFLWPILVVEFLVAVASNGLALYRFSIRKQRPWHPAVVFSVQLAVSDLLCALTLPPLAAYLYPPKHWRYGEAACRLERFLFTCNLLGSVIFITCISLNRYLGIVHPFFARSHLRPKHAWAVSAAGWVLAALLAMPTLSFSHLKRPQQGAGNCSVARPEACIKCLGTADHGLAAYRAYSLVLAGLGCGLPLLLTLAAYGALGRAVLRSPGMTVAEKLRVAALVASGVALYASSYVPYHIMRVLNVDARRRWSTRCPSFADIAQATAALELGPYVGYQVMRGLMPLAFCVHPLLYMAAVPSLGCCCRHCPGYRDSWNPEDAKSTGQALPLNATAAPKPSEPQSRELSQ

P2Y purinoceptor 12 [2] = molecular target: P2Y purinoceptor 12 (Homo sapiens, UniProt Q9H244); assay: The compound was evaluated for antagonist activity against phospholipase C coupled human P2Y purinoceptor 12 (P2Y12); assay type: functional
Chain of P2Y purinoceptor 12 (Homo sapiens, UniProt Q9H244) (Q9H244 whole entry): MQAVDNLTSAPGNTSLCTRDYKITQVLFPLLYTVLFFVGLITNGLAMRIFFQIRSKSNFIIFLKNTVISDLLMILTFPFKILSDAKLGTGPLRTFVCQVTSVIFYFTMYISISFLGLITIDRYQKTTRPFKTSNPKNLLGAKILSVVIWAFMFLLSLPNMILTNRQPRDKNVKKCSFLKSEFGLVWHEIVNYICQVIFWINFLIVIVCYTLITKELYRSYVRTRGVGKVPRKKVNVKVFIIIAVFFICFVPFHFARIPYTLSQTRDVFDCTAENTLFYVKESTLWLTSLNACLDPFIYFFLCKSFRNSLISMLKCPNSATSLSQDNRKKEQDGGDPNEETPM

P2X purinoceptor 1 [3] = molecular target: T2, P2X purinoceptor 1 (Rattus norvegicus, UniProt P47824); assay: The compound was evaluated for antagonist activity against P2X purinoceptor 1 (P2X1) like receptor from rat vas deferens; assay type: functional
T2 sequence (P47824 whole entry): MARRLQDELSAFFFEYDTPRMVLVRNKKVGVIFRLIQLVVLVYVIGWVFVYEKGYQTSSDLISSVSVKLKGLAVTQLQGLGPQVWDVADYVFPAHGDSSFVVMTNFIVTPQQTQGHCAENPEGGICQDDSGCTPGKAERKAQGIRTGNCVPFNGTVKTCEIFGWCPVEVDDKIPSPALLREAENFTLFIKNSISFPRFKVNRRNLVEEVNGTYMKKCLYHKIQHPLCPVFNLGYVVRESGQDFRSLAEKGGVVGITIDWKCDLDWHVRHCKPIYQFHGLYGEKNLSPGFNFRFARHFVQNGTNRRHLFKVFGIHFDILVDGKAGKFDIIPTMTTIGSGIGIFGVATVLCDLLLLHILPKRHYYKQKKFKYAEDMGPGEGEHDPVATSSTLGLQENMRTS

[4] = molecular target: P2Y purinoceptor 1 (Cavia porcellus); assay: The compound was evaluated for antagonistic activity at P2Y purinoceptor 1 (P2Y1) from guinea pig taenia coli
P2X purinoceptor 7 = P2X purinoceptor 7 (Rattus norvegicus, UniProt Q64663); assay: The compound was evaluated for antagonist activity against P2X purinoceptor 7 (P2X7) in rat parotid acinar cells; assay type: functional, cell-based
Chain of P2X purinoceptor 7 (Q64663 whole entry): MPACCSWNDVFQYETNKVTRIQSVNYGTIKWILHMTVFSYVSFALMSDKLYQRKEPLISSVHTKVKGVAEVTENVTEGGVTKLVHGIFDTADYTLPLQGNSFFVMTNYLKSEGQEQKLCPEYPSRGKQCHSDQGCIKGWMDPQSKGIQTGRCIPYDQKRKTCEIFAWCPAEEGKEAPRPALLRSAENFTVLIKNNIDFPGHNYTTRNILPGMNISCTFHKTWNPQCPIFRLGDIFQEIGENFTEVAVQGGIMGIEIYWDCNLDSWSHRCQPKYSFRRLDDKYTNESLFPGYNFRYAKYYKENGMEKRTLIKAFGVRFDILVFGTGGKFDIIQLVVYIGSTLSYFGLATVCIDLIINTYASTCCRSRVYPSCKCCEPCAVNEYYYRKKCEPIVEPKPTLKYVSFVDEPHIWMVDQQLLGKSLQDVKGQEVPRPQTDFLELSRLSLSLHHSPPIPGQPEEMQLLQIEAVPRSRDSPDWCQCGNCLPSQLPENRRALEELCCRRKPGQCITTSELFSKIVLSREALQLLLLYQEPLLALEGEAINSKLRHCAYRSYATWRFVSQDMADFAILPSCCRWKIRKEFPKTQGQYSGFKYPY

P2Y purinoceptor 12 [5] = molecular target: P2Y purinoceptor 12 (Rattus norvegicus, UniProt Q9EPX4); assay: Antagonist activity against phospholipase C coupled rat P2Y purinoceptor 12 (P2Y12); assay type: functional
Chain of P2Y purinoceptor 12 (Rattus norvegicus, UniProt Q9EPX4) (Q9EPX4 whole entry): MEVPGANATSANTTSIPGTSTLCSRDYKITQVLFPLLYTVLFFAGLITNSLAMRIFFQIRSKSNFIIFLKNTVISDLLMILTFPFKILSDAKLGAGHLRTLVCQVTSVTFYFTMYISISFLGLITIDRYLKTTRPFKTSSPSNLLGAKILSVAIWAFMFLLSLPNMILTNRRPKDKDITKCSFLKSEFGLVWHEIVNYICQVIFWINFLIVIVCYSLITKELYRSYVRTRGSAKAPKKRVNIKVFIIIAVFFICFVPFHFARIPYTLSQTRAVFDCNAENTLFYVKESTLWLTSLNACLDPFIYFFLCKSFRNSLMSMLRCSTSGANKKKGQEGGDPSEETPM

P2Y purinoceptor 1 = P2Y purinoceptor 1 (Meleagris gallopavo, UniProt P49652); assay: Evaluated for antagonist activity against phospholipase C coupled P2Y purinoceptor 1 (P2Y1) of turkey erythrocytes; assay type: functional
Chain of P2Y purinoceptor 1 (P49652 whole entry): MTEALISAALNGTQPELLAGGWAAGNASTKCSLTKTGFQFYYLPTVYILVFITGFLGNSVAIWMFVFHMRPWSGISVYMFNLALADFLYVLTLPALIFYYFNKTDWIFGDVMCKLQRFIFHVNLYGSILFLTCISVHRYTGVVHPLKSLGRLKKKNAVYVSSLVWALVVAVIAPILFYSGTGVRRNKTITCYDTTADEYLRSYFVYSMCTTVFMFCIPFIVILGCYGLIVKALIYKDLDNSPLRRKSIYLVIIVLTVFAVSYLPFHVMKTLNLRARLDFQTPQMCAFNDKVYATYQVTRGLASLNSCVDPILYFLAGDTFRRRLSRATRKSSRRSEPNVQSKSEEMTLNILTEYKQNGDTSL

P2X purinoceptor 2 = molecular target: T3, P2X purinoceptor 2 (Rattus norvegicus, UniProt P49653); assay: The compound was evaluated for antagonist activity against recombinant rat receptor P2X purinoceptor 2 (P2X2) at 30 uM, expressed in Xenopus oocytes; assay type: functional, cell-based, Oocyte
T3 sequence (P49653 whole entry): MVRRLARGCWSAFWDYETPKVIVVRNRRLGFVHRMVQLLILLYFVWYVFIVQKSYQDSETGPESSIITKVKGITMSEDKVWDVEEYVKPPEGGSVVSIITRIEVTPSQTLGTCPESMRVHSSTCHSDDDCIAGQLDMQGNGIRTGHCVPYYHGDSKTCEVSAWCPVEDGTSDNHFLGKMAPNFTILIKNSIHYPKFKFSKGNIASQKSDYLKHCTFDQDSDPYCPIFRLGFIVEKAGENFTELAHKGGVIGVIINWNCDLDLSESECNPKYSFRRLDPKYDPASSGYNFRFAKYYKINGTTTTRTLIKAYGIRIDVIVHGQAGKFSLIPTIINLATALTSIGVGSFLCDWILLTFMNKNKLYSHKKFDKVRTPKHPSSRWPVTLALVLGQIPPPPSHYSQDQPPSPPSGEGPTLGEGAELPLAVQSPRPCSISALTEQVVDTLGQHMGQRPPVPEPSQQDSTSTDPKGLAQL

P2X purinoceptor 4 = molecular target: T4, P2X purinoceptor 4 (Rattus norvegicus, UniProt P51577); assay: Antagonist activity against recombinant rat P2X purinoceptor 4 (P2X4) at 3 uM, expressed in Xenopus oocytes; assay type: functional, cell-based, Oocyte
T4 sequence (P51577 whole entry): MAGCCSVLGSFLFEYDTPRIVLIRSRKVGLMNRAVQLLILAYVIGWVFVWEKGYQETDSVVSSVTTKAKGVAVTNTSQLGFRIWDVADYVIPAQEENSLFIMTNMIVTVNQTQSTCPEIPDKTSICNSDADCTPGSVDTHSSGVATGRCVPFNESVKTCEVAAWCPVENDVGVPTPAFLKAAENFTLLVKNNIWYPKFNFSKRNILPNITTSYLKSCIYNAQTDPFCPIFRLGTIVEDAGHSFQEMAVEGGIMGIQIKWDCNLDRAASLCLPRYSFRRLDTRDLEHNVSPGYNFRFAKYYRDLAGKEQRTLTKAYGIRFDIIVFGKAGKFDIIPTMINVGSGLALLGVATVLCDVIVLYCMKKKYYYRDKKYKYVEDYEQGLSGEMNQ

P2X purinoceptor 1 [6] = molecular target: T2, P2X purinoceptor 1; assay: The compound was evaluated for antagonist activity against recombinant rat P2X purinoceptor 1 (P2X1) at 1 uM, expressed in Xenopus oocytes; assay type: functional, cell-based, Oocyte
P2Y purinoceptor 6 = P2Y purinoceptor 6 (Homo sapiens, UniProt Q15077); assay: The compound was evaluated for antagonist activity against phospholipase C coupled recombinant human P2Y purinoceptor 6 (P2Y6); assay type: functional; conditions: concentration not given here
Chain of P2Y purinoceptor 6 (Q15077 whole entry): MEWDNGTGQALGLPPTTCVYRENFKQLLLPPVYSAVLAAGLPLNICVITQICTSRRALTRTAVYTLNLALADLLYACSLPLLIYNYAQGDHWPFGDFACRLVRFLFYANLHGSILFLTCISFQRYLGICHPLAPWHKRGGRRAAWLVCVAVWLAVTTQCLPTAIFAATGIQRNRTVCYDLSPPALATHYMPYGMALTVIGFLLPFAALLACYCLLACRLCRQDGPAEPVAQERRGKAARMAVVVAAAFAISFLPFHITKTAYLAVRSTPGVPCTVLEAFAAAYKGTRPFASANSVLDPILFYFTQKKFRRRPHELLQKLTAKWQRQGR

P2X purinoceptor 6 = P2X purinoceptor 6 (Rattus norvegicus, UniProt P51579); assay: Antagonist activity against recombinant rat P2X purinoceptor 6 (P2X6 ); assay type: functional
Chain of P2X purinoceptor 6 (P51579 whole entry): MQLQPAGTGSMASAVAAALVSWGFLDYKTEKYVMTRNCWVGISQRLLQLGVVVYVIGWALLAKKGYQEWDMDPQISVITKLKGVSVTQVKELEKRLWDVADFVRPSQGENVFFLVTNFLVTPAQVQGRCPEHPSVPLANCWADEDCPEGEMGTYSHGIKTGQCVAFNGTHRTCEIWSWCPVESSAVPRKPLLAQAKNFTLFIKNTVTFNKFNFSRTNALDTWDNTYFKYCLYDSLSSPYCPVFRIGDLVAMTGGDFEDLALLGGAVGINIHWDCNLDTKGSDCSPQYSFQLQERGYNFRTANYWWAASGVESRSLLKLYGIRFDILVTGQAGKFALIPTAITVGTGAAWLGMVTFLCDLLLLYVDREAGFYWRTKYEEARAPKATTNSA

P2Y purinoceptor 4 = P2Y purinoceptor 4 (Homo sapiens, UniProt P51582); assay: The compound was evaluated for antagonist activity against phospholipase C coupled recombinant human P2Y purinoceptor 4 (P2Y4); assay type: functional
Chain of P2Y purinoceptor 4 (P51582 whole entry): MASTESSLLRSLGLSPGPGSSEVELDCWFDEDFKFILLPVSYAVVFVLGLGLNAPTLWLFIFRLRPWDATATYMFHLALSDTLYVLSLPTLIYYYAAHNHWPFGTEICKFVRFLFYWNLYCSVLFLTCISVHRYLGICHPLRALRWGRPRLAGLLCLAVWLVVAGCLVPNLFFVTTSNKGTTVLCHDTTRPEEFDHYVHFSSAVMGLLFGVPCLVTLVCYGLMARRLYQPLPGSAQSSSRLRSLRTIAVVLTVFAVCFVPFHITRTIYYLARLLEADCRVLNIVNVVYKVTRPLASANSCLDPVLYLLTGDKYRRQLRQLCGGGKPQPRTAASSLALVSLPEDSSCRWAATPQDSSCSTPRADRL

P2X purinoceptor 5 = molecular target: T5, P2X purinoceptor 5 (Rattus norvegicus, UniProt P51578); assay: Antagonist activity against recombinant rat P2X purinoceptor 5 (P2X5); assay type: functional
T5 sequence (P51578 whole entry): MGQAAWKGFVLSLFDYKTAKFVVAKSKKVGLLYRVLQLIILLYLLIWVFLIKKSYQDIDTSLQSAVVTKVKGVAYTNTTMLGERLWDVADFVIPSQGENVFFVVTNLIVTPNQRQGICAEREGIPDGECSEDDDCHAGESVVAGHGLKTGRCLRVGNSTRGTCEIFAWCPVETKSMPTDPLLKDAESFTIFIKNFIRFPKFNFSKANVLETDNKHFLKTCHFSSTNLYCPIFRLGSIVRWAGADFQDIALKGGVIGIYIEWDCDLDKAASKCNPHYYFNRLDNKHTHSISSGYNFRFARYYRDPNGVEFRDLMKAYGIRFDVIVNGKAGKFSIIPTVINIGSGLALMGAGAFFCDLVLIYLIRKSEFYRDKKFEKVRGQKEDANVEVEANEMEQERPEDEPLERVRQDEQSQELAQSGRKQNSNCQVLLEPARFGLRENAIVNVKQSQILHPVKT

P2Y purinoceptor 2 = P2Y purinoceptor 2 (Homo sapiens, UniProt P41231); assay: Evaluated for agonist activity against phospholipase C coupled recombinant human P2Y purinoceptor 2 (P2Y2); assay type: functional
Chain of P2Y purinoceptor 2 (P41231 whole entry): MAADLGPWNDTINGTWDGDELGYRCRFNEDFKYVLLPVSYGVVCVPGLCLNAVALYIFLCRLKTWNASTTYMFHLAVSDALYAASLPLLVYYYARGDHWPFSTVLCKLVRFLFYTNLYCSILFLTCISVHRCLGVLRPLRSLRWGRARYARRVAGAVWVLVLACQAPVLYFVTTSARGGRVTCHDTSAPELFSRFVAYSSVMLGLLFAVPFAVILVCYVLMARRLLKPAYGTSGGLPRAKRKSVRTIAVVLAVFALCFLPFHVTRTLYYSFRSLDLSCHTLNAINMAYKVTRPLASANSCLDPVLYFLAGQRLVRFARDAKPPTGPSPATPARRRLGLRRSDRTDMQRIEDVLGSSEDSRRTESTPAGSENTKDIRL

P2Y purinoceptor 11 [7] = molecular target: T1, P2Y purinoceptor 11; assay: The compound was evaluated for antagonist activity against phospholipase C coupled human P2Y purinoceptor 11 (P2Y11); assay type: functional
[8] = molecular target: P2Y purinoceptor 1 (Meleagris gallopavo); assay: The compound was evaluated for antagonist activity against phospholipase C coupled P2Y purinoceptor 1 (P2Y1) of turkey erythrocytes

CCCSc1nc(N)c2ncn([C@@H]3O[C@H](COP(=O)(O)OP(=O)(O)C(Cl)(Cl)P(=O)(O)O)[C@@H](O)[C@H]3O)c2n1
EC50 (P2Y purinoceptor 11 [1]): 1500 nM
EC50 (P2Y purinoceptor 12 [2]): 1.3 nM

Nc1c(S(=O)(=O)O)cc(Nc2ccc(Nc3nc(Cl)nc(Cl)n3)cc2S(=O)(=O)O)c2c1C(=O)c1ccccc1C2=O
IC50 (P2X purinoceptor 1 [3]): 1600 nM
IC50 [4]: < 1000 nM

O=S(=O)(O)c1cc(N=C=S)ccc1/C=C/c1ccc(N=C=S)cc1S(=O)(=O)O
IC50 (P2X purinoceptor 7): 35 µM

Cc1ccc(C(=O)Nc2ccc(S(=O)(=O)O)c3cc(S(=O)(=O)O)cc(S(=O)(=O)O)c23)cc1NC(=O)c1cccc(NC(=O)Nc2cccc(C(=O)Nc3cc(C(=O)Nc4ccc(S(=O)(=O)O)c5cc(S(=O)(=O)O)cc(S(=O)(=O)O)c45)ccc3C)c2)c1 [SURAMIN]
EC50 (P2Y purinoceptor 12 [5]): 4 µM
EC50 (P2Y purinoceptor 1): > 10 µM
EC50 (P2X purinoceptor 2): 10.4 µM
EC50 (P2X purinoceptor 4): > 100 µM
EC50 (P2X purinoceptor 1 [6]): 1000 nM
inhibition (P2Y purinoceptor 6): 27%
EC50 (P2X purinoceptor 6): > 100 µM
EC50 (P2Y purinoceptor 4): > 100 µM
EC50 (P2X purinoceptor 5): 4 µM
EC50 (P2Y purinoceptor 2): 48 µM
EC50 (P2Y purinoceptor 11 [7]): 16 µM

CNc1nc(Cl)nc2c1ncn2CCC(COP(=O)(O)O)COP(=O)(O)O
EC50 [8]: 840 nM
